Laboratory results as given in US8653046B2, “Controlling transgene expression across the skin” (ETH Zurich, priority 2009, dated 2014).

Key:
[1] = system: microencapsulated CHO-PEACE8 implants; test: Transdermal phloretin control of SEAP from microencapsulated CHO-PEACE8 implanted subcutaneously in mice; type: in vivo, female OF1 mice; conditions: vaseline-based skin lotion 200 μL, 0-42 mg phloretin, every day; 72 h after implantation
Experimental: (A) Microencapsulated CHO-PEACE8 are implanted subcutaneously into female OF1 mice (2×10^6 cells/mouse). 200 μL of a cream containing different amounts of phloretin (0, 5.25, 10.5, 21 and 42 mg) is applied to a shaved skin area near the implant site. SEAP serum levels are quantified 72 h post implantation.
CHO-PEACE8 is microencapsulated in coherent alginate-PLL-alginate capsules and implanted subcutaneously into mice. The back of treated mice is partially shaved and vaseline-based skin lotions (200 μL) containing different amounts of phloretin (0-42 mg) are put on every day. […]
CHO-PEACE8 and CHO-SEAP18 (Fluri D. A., Kemmer C., Daoud-El Baba M., Fussenegger M., 2008, J Control Release 131(3):211-219) are encapsulated in alginate-poly-(L-lysine)-alginate beads (400 μm; 200 cells/capsule) using an Inotech Encapsulator Research IE-50R (Recipharm, Basel, Switzerland) according to the manufacturer's instructions and the following parameters: 0.2 mm nozzle, 20 mL syringe at a flow rate of 405 units, nozzle vibration frequency of 1024 Hz and 900 V for bead dispersion. […] Thereafter, the mice are sacrificed, blood samples collected and SEAP levels are quantified in the serum which is isolated using microtainer SST tube according to the manufacturer's instructions (Beckton Dickinson, Plymouth, UK). […]

[2] = system: TtgA3 (TtgR-E2F4); test: PEACE: SEAP expression after transient co-transfection of pMG10 and pMG19 (PSV40-TtgA3-pA); type: cell-based, Pseudomonas putida DOT-T1E; conditions: 48 h
Source text: Three different transactivators are designed, harboring either the VP16 (TtgA1; pMG11, TtgR-VP16) (Triezenberg S. J. et al., loc. cit.), the p65 (TtgA2; pMG18, TtgR-p65) (Urlinger S., et al., 2000, Gene 247(1-2):103-110) or the human E2F4 (TtgA3; pMG19, TtgR-E2F4) (Akagi K., Kanai M., Saya H., Kozu T., Berns A., 2001, Nucleic Acids Res 29(4):e23) transactivation domains. pMG11, pMG18 or pMG19 are co-transfected with pMG10 (PTtgR1-SEAP-pA) into CHO-K1, HEK-293 as well as primary human fibroblasts and keratinocytes, and SEAP expression is profiled after 48 h of cultivation in the presence or absence of 50 μM phloretin. […] All transactivators mediate similar basal expression levels when phloretin is […] in the medium, but due to their cell-type specificity and graded maximum transcription-initiation capacities, the three transactivators offer a selection of defined expression windows.

[3] = system: TtgK (TtgR-KRAB); test: PEACE-ON: SEAP expression of CHO-K1 co-transfected with pMG28 (PSV40-TtgK-pA) and pMG27 (PTtgRON-SEAP-pA); type: cell-based; conditions: phloretin 0-50 μM, 48 h
Experimental: (C) SEAP expression profiles of CHO-K1 transiently transfected with pMG28 (PSV40-TtgK-pA) and pMG27 (PTtgRON-SEAP-pA) and cultivated for 48 h in the presence of different phloretin concentrations (0-50 μM).
By fusing TtgR to the human Kruppel-associated box-protein (KRAB) (Moosmann P., Georgiev O., Thiesen H. J., Hagmann M., Schaffner W., […], Biol Chem 378(7):669-677) a synthetic mammalian transrepressor (TtgK) is created, which is able to bind and inhibit transcription from a promoter (PTtgRON) harboring eight OTtgR-elements located 3′ of a constitutive simian virus 40 promoter (PSV40), in a phloretin-responsive manner (FIGS. 10A and B). Co-transfection of the constitutive TtgK expression vector pMG28 (PSV40-TtgK-pA) and pMG27 (PTtgRON-SEAP-pA) encoding a TtgK-specific PTtgRON-driven SEAP expression unit, results in low-level, basal SEAP expression (2.3±0.26 U/L). […]

## O=C(CCc1ccc(O)cc1)c1c(O)cc(O)cc1O [phloretin, 3-[4-hydroxyphenyl]-1-[2,4,6-trihydroxyphenyl]-1-propanone]
[1]
  SEAP serum levels in treated mice: phloretin-dependent dose-response characteristics
[2]; CHO-K1, phloretin 50 μM
  SEAP Production: 0.26 ± 0.08 U/L
[2]; HEK-293, phloretin 50 μM
  SEAP Production: 0.2 ± 0.016 U/L
[2]; HaCaT, phloretin 50 μM
  SEAP Production: 0.5 ± 0.05 U/L
[3]
  SEAP expression dose response (PEACE-ON): dose-dependent induction of SEAP expression
